# Experimental data from BindingDB's records for doi:10.1021/jm058033i (University of Regensburg, 2006).
# Key:
# [1] = Inhibition of DNA synthesis in IL3 dependent FDC-P1 cells expressing wild-type KIT
# [2] = Inhibition of DNA synthesis in IL3 dependent FDC-P1 cells expressing KIT V558D mutant
# [3] = Antiproliferative activity against mouse 32Dcl3 cell line expressing FLT3-ITD
# [4] = Antiproliferative activity against mouse 32Dcl3 cell line expressing wild-type FLT3
IC50 [1] [nM],IC50 [2] [nM],IC50 [3] [nM],IC50 [4] [nM],Structure (SMILES)
500,500,,,Cc1cccc2[nH]c(C(=O)c3cc4cc(O)ccc4[nH]3)cc12 [(5-Hydroxy-1H-indol-2-yl)-(4-methyl-1H-indol-2-yl)-methanone]
500,500,100,100,O=C(c1cc2cc(O)ccc2[nH]1)c1cc2cc(O)ccc2[nH]1 [Bis-(5-hydroxy-1H-indol-2-yl)-methanone]
